Several values for one entry are separate records, joined by “and”; a condition that tells them apart may be missing. Equal values may be shown once.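 Following 48 hours of exposure in 96-well plates, responses at five concentrations were used to interpolate endpoints linearly. At the GI50, growth is halved. The concentration for full growth arrest is given as TGI.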
Key:
Test in all cases: inhibition of tumour cell growth, NCI panel, 48 h
[1] = test system: T-47D breast
[2] = test system: RPMI-8226 leukemia
[3] = test system: UO-31 renal
[4] = test system: CCRF-CEM leukemia
[5] = test system: NCI-H23 lung
[6] = test system: M14 melanoma
[7] = test system: COLO 205 colon

Structure (SMILES)	TGI [1]	GI50 [2]	TGI [2]	TGI [3]	GI50 [4]	TGI [4]	TGI [5]	GI50 [6]	TGI [6]	TGI [7]	GI50 [1]	GI50 [3]	GI50 [5]	GI50 [7]
COc1ccc(S(=O)(=O)N2CCN(C(=O)c3ccc(-c4ccccc4)cc3)CC2C(=O)NO)cc1 (stereo unspecified)	12.5 µM and > 100 µM	> 100 µM	> 100 µM	10.4 µM and > 100 µM	> 100 µM	> 100 µM	12.5 µM and > 100 µM	1.96 µM	10 µM	12.5 µM and > 100 µM	–	–	–	–
O=C(NOC[C@H](O)CO)c1ccc(F)c(F)c1Nc1ccc(I)cc1F	> 100 µM	35.9 µM and > 10 µM	> 100 µM	> 72.2 µM	> 100 µM	> 100 µM	> 100 µM	< 0.01 µM and 0.00132 µM	0.0969 µM	> 100 µM	51.5 µM and > 4.02 µM	0.302 µM and 0.0357 µM	0.0188 µM and 0.0537 µM	< 0.01 µM and 0.00143 µM
OCc1ccc(N2CCc3cccc(F)c3C2)cc1Cl	–	–	20.5 µM	46.6 µM	24.9 µM	99.1 µM	40.9 µM	29.3 µM	> 78.7 µM	0.175 µM	–	14.5 µM	13.9 µM	0.0197 µM
COc1cc2c(c(OC)c1OC)-c1ncc3c(OC)c(OC)c(OC)cc3c1C2	–	19 µM	54.9 µM	47.2 µM	–	–	–	39.8 µM	> 100 µM	38.2 µM	–	18 µM	–	19.9 µM
O=S(=O)(NC1=NCCN1C(=S)SN1CCn2c1nsc2=S)c1cccc2ccccc12	> 100 µM	3.7 µM	67.8 µM	> 100 µM	2.5 µM	> 100 µM	80.9 µM	24.6 µM	> 100 µM	> 100 µM	20.2 µM	26.6 µM	20.9 µM	26.8 µM
CCOC(=O)C(Cc1c[nH]c2c(N(CCO)CCO)cccc12)(NC(C)=O)C(=O)OCC	> 1000 µM	–	–	> 1000 µM	59.4 µM and 190 µM	430 µM	> 1000 µM	> 1000 µM	> 1000 µM	> 1000 µM	396 µM	> 1000 µM	> 1000 µM	330 µM
O=C(/C=C/c1ccccc1)C(Br)C(Br)c1ccccc1 (stereo unspecified)	–	0.317 µM	0.909 µM	2.48 µM	0.308 µM	1.2 µM	–	2.02 µM	4.9 µM	3.14 µM	–	1.19 µM	–	1.54 µM
O=c1c2cc(F)ccc2sc2c(N3CCNCC3)nc3ccc(F)cc3c12	–	2.16 µM	4.89 µM	2.6 µM	2.06 µM	5.24 µM	3.17 µM	1.94 µM	3.66 µM	4.72 µM	–	1.31 µM	1.67 µM	2.15 µM
COc1ccc(C2OC(=O)c3ccc4ccccc4c32)c(C)c1 (stereo unspecified)	> 86 µM	–	> 65.4 µM	> 83.8 µM	–	> 100 µM	41.8 µM	–	> 38 µM	> 35.1 µM	–	–	–	–
CCOC(=O)c1cc2cc3c4c(c2oc1=O)CCCN4CCC3	53.6 µM	–	49.3 µM	> 100 µM	–	> 100 µM	> 100 µM	–	> 100 µM	57.1 µM	–	–	–	–
O=C1CC2C(=O)c3ccccc3CC2c2ccccc21 (stereo unspecified)	87.7 µM	–	64 µM	> 100 µM	–	–	–	–	> 100 µM	–	–	–	–	–
COc1cc2ncn(-c3cc(OCc4ccccc4C(F)(F)F)c(C(=O)N(C)C)s3)c2cc1OC	> 17 µM	> 25 µM	> 25 µM	> 25 µM	> 22.1 µM	> 25 µM	> 25 µM	> 25 µM	> 25 µM	> 25 µM	7.02 µM	9.69 µM	> 25 µM	> 16.8 µM
O=C(O)c1ccc(CI)cc1	48 µM	–	45.8 µM	32.7 µM	–	26.9 µM	33.1 µM	–	41.3 µM	32.4 µM	–	–	–	–
Cn1c(C(=O)c2ccncc2)cc2ccccc21	> 100 µM	48.8 µM	> 100 µM	> 100 µM	> 100 µM	> 100 µM	> 100 µM	> 100 µM	> 100 µM	> 100 µM	41.6 µM	27.4 µM	> 100 µM	> 100 µM
O=[N+]([O-])c1cc(Cl)c2[nH]c3c(Cl)cc([N+](=O)[O-])cc3c2c1	> 100 µM	0.124 µM	> 100 µM	1.38 µM	0.391 µM	24.1 µM	28.2 µM	0.458 µM	> 54.7 µM	1.99 µM	0.254 µM	0.189 µM	0.213 µM	0.469 µM
Nc1nonc1-c1nc2cnccc2n1C1CC1	> 22.3 µM	6.46 µM	24.4 µM	> 25 µM	7.99 µM	> 25 µM	> 25 µM	14.1 µM	> 25 µM	> 14.4 µM	5.7 µM	2.09 µM	7.3 µM	4.52 µM
COc1ccc(-c2ccncc2)cc1C(N)=O	> 25 µM	> 25 µM	> 25 µM	> 25 µM	> 25 µM	> 25 µM	> 25 µM	> 25 µM	> 25 µM	> 25 µM	> 25 µM	> 25 µM	> 25 µM	> 25 µM
O=C(O)c1ccc(NCn2nc(-c3ccccc3O)oc2=S)cc1	> 100 µM	> 100 µM	> 100 µM	> 100 µM	7.38 µM	> 100 µM	> 100 µM	53.5 µM	> 100 µM	> 100 µM	> 100 µM	> 100 µM	50.7 µM	48.8 µM
NS(=O)(=O)c1ccc(-n2nc3c(c2-c2ccc(Cl)cc2)Cc2ccccc2-3)cc1	> 100 µM	10.4 µM	24.7 µM	21.8 µM	2.96 µM	9.08 µM	19.6 µM	13.1 µM	31.5 µM	64.1 µM	91 µM	9.57 µM	3.27 µM	22.8 µM

Structure (SMILES)	TGI [1]	GI50 [2]	TGI [2]	TGI [3]	GI50 [4]	TGI [4]	TGI [5]	GI50 [6]	TGI [6]	TGI [7]	GI50 [1]	GI50 [3]	GI50 [5]	GI50 [7]
COc1cc2nc(SCc3cc(OC)c(OC)c(OC)c3)n(Cc3ccccc3)c(=O)c2cc1OC	> 65.9 µM	2.84 µM	> 100 µM	> 100 µM	3 µM	> 100 µM	> 100 µM	2.11 µM	> 26.8 µM	6.96 µM	4.54 µM	3.9 µM	6.58 µM	1.74 µM
[C](#Cc1ccccc1)[Hg][C]#Cc1ccccc1	79.1 µM	13.1 µM	> 100 µM	74.6 µM	8.93 µM	> 100 µM	> 100 µM	75.1 µM	> 100 µM	48 µM	28.8 µM	32.5 µM	37.8 µM	22.2 µM
COc1ccc2cc(/C=C/C(=O)c3ccc(Cl)cc3Cl)ccc2c1	–	16.2 µM	47.2 µM	> 100 µM	21 µM	57.2 µM	> 100 µM	30.5 µM	> 100 µM	–	–	36.6 µM	47 µM	–
O=C(/C=C/C12c3ccccc3C(c3ccccc31)C1C(=O)NC(=O)C12)c1ccc(Cl)cc1Cl (stereo unspecified)	9.59 µM	1.68 µM	4.41 µM	2.71 µM	1.89 µM	7.23 µM	4.1 µM	1.83 µM	3.54 µM	4.24 µM	2.48 µM	1.4 µM	2.02 µM	2.2 µM
Cc1[nH]nc(C(F)(F)F)c1N=NN(C)C	> 100 µM	–	5.15 µM	5.03 µM	–	16 µM	21.9 µM	–	29.7 µM	10.7 µM	–	–	–	–
COC(=O)C1C(O)CCC2CN3CCc4c([nH]c5ccccc45)C3CC21 (stereo unspecified)	> 100 µM	–	> 100 µM	> 100 µM	–	–	> 100 µM	–	> 100 µM	> 100 µM	–	–	–	–
COc1cc(F)c(F)c(Nc2ccc(I)cc2F)c1NS(=O)(=O)C1(C[C@H](O)CO)CC1	> 9.3 µM	2.66 µM	> 10 µM	> 10 µM	> 9.26 µM	> 10 µM	> 10 µM	0.0242 µM	1.59 µM	> 2.51 µM	> 4.02 µM	0.295 µM	0.283 µM	0.0234 µM
C=CCn1c(C)nc2ccc(Nc3nc(Nc4ccc(F)cc4)nc4ccccc34)cc21	4.23 µM	1.85 µM	4.57 µM	19.3 µM	3.01 µM	11.7 µM	26 µM	3.26 µM	14.2 µM	–	1.7 µM	4.53 µM	4.23 µM	–
COc1ccc(/C=C/C(=O)/C=C/c2cc3ccccc3[nH]c2=O)cc1	12.4 µM	1.77 µM	5.02 µM	17.9 µM	2.98 µM	9.68 µM	19.8 µM	2.8 µM	8.92 µM	9.37 µM	3.34 µM	3.48 µM	4.31 µM	3.31 µM
CC(=O)Oc1ccc(C23c4ccccc4C2(OC(C)=O)c2cc(OC(C)=O)ccc23)cc1 (stereo unspecified)	7.45 µM	2.29 µM	6.66 µM	5.02 µM	3.05 µM	12.4 µM	28.5 µM	14 µM	32.1 µM	29.1 µM	2.22 µM	1.85 µM	10.2 µM	14.5 µM
COC(=O)c1cc2c3ccccc3n3c(=O)c4cc5ccc(N(S(=O)(=O)c6ccc(C)cc6)S(=O)(=O)c6ccc(C)cc6)cc5nc4c(n1)c23	> 100 µM	43.7 µM	> 100 µM	> 100 µM	19.2 µM	44.9 µM	> 100 µM	54.4 µM	> 100 µM	> 100 µM	> 100 µM	> 100 µM	36.6 µM	> 100 µM
COc1cccc(/C(C#N)=C/c2nc3c(N4CCOCC4)nc(Cl)nc3n2C)c1	–	0.376 µM	1.87 µM	1.92 µM	0.318 µM	0.934 µM	3.19 µM	1.06 µM	2.38 µM	3.09 µM	–	0.48 µM	1.52 µM	1.33 µM
COc1cc(C2SCCCCCCCCCCSC(c3ccc(O)c(OC)c3)SCCCCCCCCCCS2)ccc1O (stereo unspecified)	> 100 µM	–	> 100 µM	> 100 µM	–	–	> 100 µM	–	> 100 µM	> 100 µM	–	–	–	–
COc1ccc2c(=O)cc(-c3ccccc3)[nH]c2c1	–	0.564 µM	> 58.4 µM	> 100 µM	1.48 µM	> 100 µM	> 100 µM	5.93 µM	> 100 µM	1.55 µM	–	0.716 µM	1.25 µM	0.364 µM
CCCCCCCCOC(=O)CC[C@@H](C)[C@H]1CC[C@H]2[C@@H]3[C@H](OC(=O)CCN)C[C@@H]4C[C@H](OC(=O)CCN)CC[C@]4(C)[C@H]3C[C@H](OC(=O)CCN)[C@]12C	39.9 µM	8.42 µM	33.6 µM	42 µM	–	–	29.9 µM	4.61 µM	22.9 µM	20.6 µM	12.3 µM	21.9 µM	10 µM	4.74 µM
O=C(Nc1cc(C(F)(F)F)ccc1Cl)c1ccc(NC2=C(Cl)C(=O)N(Cc3ccccc3)C2=O)cc1	> 100 µM	2.65 µM	8.51 µM	–	1.42 µM	11.7 µM	43.9 µM	37.6 µM	> 100 µM	35.6 µM	14.1 µM	–	18.9 µM	16 µM
COc1ccccc1C#Cc1ccccc1C#CCCCCO	65.8 µM	20 µM	> 100 µM	32.8 µM	16.3 µM	85.6 µM	37.7 µM	–	–	37.7 µM	18.5 µM	16.8 µM	19.1 µM	18.3 µM
Nc1ccccc1C#C/C=C\C#Cc1ccc(OCCCNC(=O)c2cc3ccccc3[nH]2)cc1	–	1.01 µM	17.6 µM	> 100 µM	–	–	43.6 µM	–	–	> 100 µM	–	41.7 µM	7.62 µM	9.12 µM
COc1ccc(-c2cs/c(=N\N=C\c3ccc(O)cc3O)n2/N=C/c2ccc(O)cc2O)cc1	6.22 µM	–	–	3.2 µM	–	–	4.64 µM	1.63 µM	3.21 µM	4.19 µM	1.65 µM	1.5 µM	1.95 µM	2.09 µM

Reference: PubChem BioAssay (NCI)
